Source: PubChem BioAssay AID248 (DTP/NCI, 2004)
Several values for one entry are separate records, joined by “and”; a condition that tells them apart may be missing. Identical values can stand only once. Inconclusive results and toxic doses are left out. Rule as the data show it: active = T/C of 150% or more; inactive = T/C below 125%.

System: L1210 leukemia ip in BDF1 mice, survival T/C
Assay: NCI In Vivo Anticancer Drug Screen. Data for tumor model L1210 Leukemia (intraperitoneal) in B6D2F1 (BDF1) mice
Details: endpoint: mean survival time, higher = longer survival
Procedure, shortened: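 Survival endpoint. Drug-treated group vs vehicle group, expressed as T divided by C. Tumor passaged by transplantation.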

[1] = dose: 100.0 mg/kg/injection, schedule: Q01DX001 (ip), vehicle: saline
[2] = dose: 200.0 mg/kg/injection, schedule: Q01DX001 (ip), vehicle: saline
[3] = dose: 100.0 mg/kg/injection, schedule: Q04DX003 (ip), vehicle: saline with Tween-80
[4] = dose: 200.0 mg/kg/injection, schedule: Q04DX003 (ip), vehicle: saline with Tween-80
[5] = dose: 400.0 mg/kg/injection, schedule: Q04DX003 (ip), vehicle: saline with Tween-80
[6] = dose: 100.0 mg/kg/injection, schedule: Q01DX009 (ip), vehicle: Klucel (hydroxypropylcellulose) (HPC)
[7] = dose: 75.0 mg/kg/injection, schedule: Q01DX001 (ip), vehicle: saline
[8] = dose: 150.0 mg/kg/injection, schedule: Q01DX001 (ip), vehicle: saline
[9] = dose: 300.0 mg/kg/injection, schedule: Q01DX001 (ip), vehicle: saline
[10] = dose: 100.0 mg/kg/injection, schedule: Q04DX003 (ip), vehicle: saline
[11] = dose: 200.0 mg/kg/injection, schedule: Q04DX003 (ip), vehicle: saline
[12] = dose: 400.0 mg/kg/injection, schedule: Q04DX003 (ip), vehicle: saline
[13] = dose: 100.0 mg/kg/injection, schedule: Q01DX009 (ip), vehicle: saline
[14] = dose: 400.0 mg/kg/injection, schedule: Q01DX001 (ip), vehicle: saline
[15] = dose: 200.0 mg/kg/injection, schedule: Q01DX009 (ip), vehicle: saline
[16] = dose: 400.0 mg/kg/injection, schedule: Q01DX009 (ip), vehicle: saline
[17] = dose: 100.0 mg/kg/injection, schedule: Q01DX001 (ip), vehicle: carboxymethylcellulose (CMC)
[18] = dose: 200.0 mg/kg/injection, schedule: Q01DX001 (ip), vehicle: carboxymethylcellulose (CMC)
[19] = dose: 400.0 mg/kg/injection, schedule: Q01DX001 (ip), vehicle: carboxymethylcellulose (CMC)

Measured: T/C

CC1(C)CCc2c(O)c(N=O)c3ccccc3c2O1
inactive: dose: 100.0 mg/kg/injection, schedule: Q01DX001 (ip), vehicle: saline with Tween-80 103 % of control | dose: 200.0 mg/kg/injection, schedule: Q01DX001 (ip), vehicle: saline with Tween-80 95 % of control | dose: 400.0 mg/kg/injection, schedule: Q01DX001 (ip), vehicle: saline with Tween-80 95 % of control

CC(=O)CC(=O)N(N=O)c1ccccc1C
inactive: [1] 104 % of control | [2] 95 % of control

O=C1CNC(=O)N1c1cccc(Cl)c1
inactive: [3] 100 % of control | [4] 100 % of control | [5] 102 % of control

Cc1ccc(NC(=S)NNC(=S)NNc2ccccc2)cc1C
inactive: [6] 90 % of control | [3] 89 % of control | dose: 200.0 mg/kg/injection, schedule: Q01DX009 (ip), vehicle: Klucel (hydroxypropylcellulose) (HPC) 102 % of control | [4] 93 % of control | dose: 400.0 mg/kg/injection, schedule: Q01DX009 (ip), vehicle: Klucel (hydroxypropylcellulose) (HPC) 103 % of control | [5] 91 % of control

CC1(C#N)CCC(CCc2ccccc2)C(=O)C1 (centres undefined)
inactive: [7] 109 % of control | dose: 75.0 mg/kg/injection, schedule: Q01DX009 (ip), vehicle: saline 99 % of control | [8] 95 % of control | dose: 150.0 mg/kg/injection, schedule: Q01DX009 (ip), vehicle: saline 94 % of control | [9] 92 % of control | dose: 300.0 mg/kg/injection, schedule: Q01DX009 (ip), vehicle: saline 96 % of control

N#C/C(=N\Nc1ccc(S(=O)(=O)O)cc1)C(N)=O
inactive: [10] 104 % of control | [11] 100 % of control | [12] 98 % of control

CNS(=O)(=O)c1ccc(Cl)cc1
inactive: [1] 95 % of control | dose: 100.0 mg/kg/injection, schedule: Q01DX009 (ip), vehicle: saline with Tween-80 118 % of control | [13] 98 % of control | [2] 101 % of control | dose: 200.0 mg/kg/injection, schedule: Q01DX009 (ip), vehicle: saline with Tween-80 94 % of control | [14] 96 % of control

CC(=O)OC1CCCC2C(=O)c3c(c(O)c4ccccc4c3O)C(=O)C12 (centres undefined)
inactive: [13] 98 % of control | [10] 96 % of control | [15] 98 % of control | [11] 96 % of control | [16] 101 % of control | [12] 93 % of control

COc1cc2c(cc1OC)C(=O)CC2
inactive: dose: 50.0 mg/kg/injection, schedule: Q01DX001 (ip), vehicle: other 91 % of control | dose: 100.0 mg/kg/injection, schedule: Q01DX001 (ip), vehicle: other 98 % of control | dose: 200.0 mg/kg/injection, schedule: Q01DX001 (ip), vehicle: other 98 % of control | dose: 400.0 mg/kg/injection, schedule: Q01DX001 (ip), vehicle: other 96 % of control

COc1ccc(C(=O)c2ccc3ccccc3c2)cc1
inactive: [17] 92 % of control | [18] 92 % of control | [19] 94 % of control

Nc1nc(N)c(N=O)c(Nc2ccc(I)cc2)n1
inactive: dose: 40.0 mg/kg/injection, schedule: Q01DX Z (ip), vehicle: carboxymethylcellulose (CMC) 102 % of control | dose: 50.0 mg/kg/injection, schedule: Q01DX009 (ip), vehicle: acetone 108 % of control | dose: 50.0 mg/kg/injection, schedule: Q04DX003 (ip), vehicle: carboxymethylcellulose (CMC) 109 % of control | dose: 60.0 mg/kg/injection, schedule: Q01DX Z (ip), vehicle: carboxymethylcellulose (CMC) 104 % of control | dose: 90.0 mg/kg/injection, schedule: Q01DX Z (ip), vehicle: carboxymethylcellulose (CMC) 88 % of control | [17] 101 % of control | dose: 100.0 mg/kg/injection, schedule: Q01DX009 (ip), vehicle: acetone 106 % of control | dose: 100.0 mg/kg/injection, schedule: Q04DX003 (ip), vehicle: carboxymethylcellulose (CMC) 106 % of control | dose: 135.0 mg/kg/injection, schedule: Q01DX Z (ip), vehicle: carboxymethylcellulose (CMC) 89 % of control | [18] 101 % of control | dose: 200.0 mg/kg/injection, schedule: Q04DX003 (ip), vehicle: carboxymethylcellulose (CMC) 96 % of control

CCCCOC(=O)c1ccc2c(ccc[n+]2C)c1
inactive: [7] 95 % of control | dose: 75.0 mg/kg/injection, schedule: Q04DX003 (ip), vehicle: saline 112 % of control | [8] 101 % of control | dose: 150.0 mg/kg/injection, schedule: Q04DX003 (ip), vehicle: saline 105 % of control | [9] 100 % of control | dose: 300.0 mg/kg/injection, schedule: Q04DX003 (ip), vehicle: saline 96 % of control

CC(C)N1c2c(nc(N)[nH]c2=O)NCC1CNc1ccc(C(=O)NC(CCC(=O)O)C(=O)O)cc1 (centres undefined)
inactive: [13] 102 % of control | [10] 104 % of control | [15] 102 % of control | [11] 98 % of control | [16] 102 % of control | [12] 98 % of control

O=C1CC2=CCCCc3cccc1c32
inactive: [17] 93 % of control | [18] 93 % of control | [19] 93 % of control

[B-][NH2+]c1ccc([NH2+][B-])cc1
inactive: [1] 96 % of control | [2] 91 % of control | [14] 100 % of control

NC(=O)CNC1=C(N2CC2)C(=O)C(NCC(N)=O)=C(N2CC2)C1=O
active: dose: 5.0 mg/kg/injection, schedule: Q01DX009 (ip), vehicle: saline 163 % of control | dose: 8.0 mg/kg/injection, schedule: Q04DX003 (ip), vehicle: saline 193 % of control | dose: 10.0 mg/kg/injection, schedule: Q01DX009 (ip), vehicle: saline 158 % of control and 191 % of control
inactive: dose: 0.12 mg/kg/injection, schedule: Q04DX003 (ip), vehicle: saline 106 % of control | dose: 0.25 mg/kg/injection, schedule: Q04DX003 (ip), vehicle: saline 101 % of control | dose: 0.5 mg/kg/injection, schedule: Q04DX003 (ip), vehicle: saline 116 % of control | dose: 1.0 mg/kg/injection, schedule: Q04DX003 (ip), vehicle: saline 119 % of control | dose: 1.25 mg/kg/injection, schedule: Q01DX001 (ip), vehicle: saline 102 % of control | dose: 1.25 mg/kg/injection, schedule: Q01DX009 (ip), vehicle: saline 102 % of control | dose: 2.5 mg/kg/injection, schedule: Q01DX001 (ip), vehicle: saline 100 % of control | dose: 2.5 mg/kg/injection, schedule: Q01DX009 (ip), vehicle: saline 124 % of control | dose: 5.0 mg/kg/injection, schedule: Q01DX001 (ip), vehicle: saline 108 % of control | dose: 10.0 mg/kg/injection, schedule: Q01DX001 (ip), vehicle: saline 115 % of control | dose: 12.0 mg/kg/injection, schedule: Q04DX003 (ip), vehicle: saline 122 % of control

CNC(c1ccccc1)C(O)c1ccccc1 (centres undefined)
inactive: dose: 25.0 mg/kg/injection, schedule: Q01DX009 (ip), vehicle: Klucel (hydroxypropylcellulose) (HPC) 106 % of control | dose: 50.0 mg/kg/injection, schedule: Q01DX009 (ip), vehicle: Klucel (hydroxypropylcellulose) (HPC) 95 % of control | [6] 106 % of control | dose: 100.0 mg/kg/injection, schedule: Q04DX003 (ip), vehicle: Klucel (hydroxypropylcellulose) (HPC) 97 % of control
